According to PMC12750381 (ACS Omega, 2025):
Values joined by “and” are separate entries in the source; they are usually repeats but may differ in a detail not shown here. Identical values can stand only once.

Biological target: HIV-1 wild-type protease (Human immunodeficiency virus type 1 group M subtype B, UniProt P04585)
Experiment: Fluorometric HIV-1 protease assay (SensoLyte 520 HIV Protease Assay Kit)
Assay type: biochemical
Details: for enzyme inhibition (relative activity): at 1 μM, 100 nM and 10 nM
Experimental: The inhibitory effects of the described compounds against HIV-1 wild-type protease were assessed utilizing the fluorometric HIV-1 protease assay kit (SensoLyte 520 HIV Protease Assay Kit AS-71147, AnaSpec Inc., USA), following the manufacturer’s recommended protocol. […] Additionally, 0.01% (v/v) DMSO was employed as the negative control. […] The tested compounds 9a–g were dissolved in 100% DMSO and further diluted with the assay buffer provided in the kit to varying concentrations. The fluorescence was measured in kinetic mode at 490 nm (excitation) and 520 nm (emission) for 90 min at 37 °C using the Varioskan LUX multimode microplate reader (Thermo Fisher Scientific Inc. USA). The raw data obtained were subsequently normalized relative to the controls, with 0.01% DMSO set as 0% inhibitory activity. The IC50 values were calculated by fitting the data to a four-parameter log(inhibitor) vs response equation using GraphPad Prism version 9.5.0 (GraphPad Software, San Diego, California, USA).

Row | SMILES | enzyme inhibition (relative activity) (result in words) | IC50 (IC50, wild-type HIV-1 protease, four-parameter log(inhibitor) vs response fit) | inhibitory effect (at 1 μM and 100 nM, result in words)
1 | NC(=O)CNC(=O)C(Cc1ccccc1)CP(=O)(O)CC(Cc1ccccc1)C(=O)NCC(N)=O (stereo not shown) [Compound 9a, Bis(3-((2-amino-2-oxoethyl)amino)-2-benzyl-3-oxopropyl)phosphinic Acid] | did not exhibit any significant inhibitory effect | – | –
2 | C[C@H](NC(=O)C(Cc1ccccc1)CP(=O)(O)CC(Cc1ccccc1)C(=O)N[C@@H](C)C(N)=O)C(N)=O (stereo partly drawn) [Compound 9b, Bis(3-(((S)-1-amino-1-oxopropan-2-yl)amino)-2-benzyl-3-oxopropyl)phosphinic Acid] | only weak inhibition | – | –
3 | CC(C)[C@H](NC(=O)C(Cc1ccccc1)CP(=O)(O)CC(Cc1ccccc1)C(=O)N[C@H](C(N)=O)C(C)C)C(N)=O (stereo partly drawn) [Compound 9c, Bis(3-(((S)-1-amino-3-methyl-1-oxobutan-2-yl)amino)-2-benzyl-3-oxopropyl)phosphinic Acid] | – | 33 nM and 33.1 nM | pronounced inhibitory effect comparable to that of Darunavir
4 | CC(C)C[C@H](NC(=O)C(Cc1ccccc1)CP(=O)(O)CC(Cc1ccccc1)C(=O)N[C@@H](CC(C)C)C(N)=O)C(N)=O (stereo partly drawn) [Compound 9d, Bis(3-(((S)-1-amino-4-methyl-1-oxopentan-2-yl)amino)-2-benzyl-3-oxopropyl)phosphinic Acid] | moderate level of enzyme inhibition | – | –
5 | NC(=O)[C@H](Cc1ccccc1)NC(=O)C(Cc1ccccc1)CP(=O)(O)CC(Cc1ccccc1)C(=O)N[C@@H](Cc1ccccc1)C(N)=O (stereo partly drawn) [Compound 9e, Bis(3-(((S)-1-amino-1-oxo-3-phenylpropan-2-yl)amino)-2-benzyl-3-oxopropyl)phosphinic Acid] | only weak inhibition | – | –
6 | NC(=O)[C@@H]1CCCN1C(=O)C(Cc1ccccc1)CP(=O)(O)CC(Cc1ccccc1)C(=O)N1CCC[C@H]1C(N)=O (stereo partly drawn) [Compound 9f, Bis(2-benzyl-3-((S)-2-carbamoylpyrrolidin-1-yl)-3-oxopropyl)phosphinic Acid] | did not exhibit any significant inhibitory effect | – | –
